From US20240368133A1, “Compounds for the Treatment of Pain, in Particular, Neuropathic Pain, and/or Other Diseases or Disorders that are Associated with AT2R and/or AT2R Mediated Signaling” (Confo Therapeutics N.V., priority 2021, published 2024)

Tests used:
human AT1R = human AT1R (Homo sapiens (Human), UniProt P30556); assay: Counterscreen radioligand binding assay, displacement of 125I-[Sar1, Ile8]-Angiotensin II, hAT1R WT; details: for inhibition at 1 µM / inhibition at 10 µM: 125I-[Sar1, Ile8]-Ang II, semi-quantitative score; for inhibition at 1 µM: compound at 1 μM, read-out: % Displaced radioligand at 1 μM; for inhibition at 10 µM: compound at 10 μM, read-out: % Displaced radioligand at 10 μM; for IC50: HEK-293 cell membranes, read-out: Binding affinity On hAT1R IC50
How it was run: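 Compounds displaced 0.05 nM 125I-[Sar1, Ile8]-Ang II from human AT1R in HEK-293 membranes (1 h, 25° C; Tris/MgCl2/EDTA/BSA buffer, pH 7.4). Readout was filtration and scintillation counting, with non-specific binding set by 10 μM [Sar1]-Ang II. Values are % displacement at 1 μM and […], or IC50 from eight-point four-parameter fits.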

[1] = Liver microsomal stability, mouse; format: in vitro ADME; details: male, pH 7.4, liver microsomes
Method: Mouse hepatic microsomes were isolated from pooled (50), perfused livers of male Balb/c mice. Rat hepatic microsomes were isolated from pooled (15), perfused livers of male Wistar rats. Isolation was performed according to the standard protocol (Hill, J. R. in Current Protocols in Pharmacology 7.8.1-7.8.11, Wiley Interscience, 2003). The batches of microsomes were tested for quality control using Imipramine, Propranolol and Verapamil as reference compounds.
Microsomal incubations were carried out in 96-well plates in 5 aliquots of 40 μL each (one for each time point). Liver microsomal incubation medium contained PBS (100 mM, pH 7.4), MgCl2 (3.3 mM), NADPH (3 mM), glucose-6-phosphate (5.3 mM), glucose-6-phosphate dehydrogenase (0.67 units/ml) with 0.42 mg of liver microsomal protein per ml. Control incubations were performed replacing the NADPH-cofactor system with PBS. Test compound (2 μM, final solvent concentration 1.6%) was incubated with microsomes at 37° C., shaking at 100 rpm. Incubations were performed in duplicates. Five time points over 40 minutes have been analyzed. The reactions were stopped by adding 12 volumes of 90% acetonitrile-water to incubation aliquots, followed by protein sedimentation by centrifuging at 5500 rpm for 3 minutes. […]. Supernatants were analyzed using the HPLC system coupled with tandem mass spectrometer (API3000 PE Sciex). Acquisition and analysis of the data were performed using Analyst 1.5.2 software (PE Sciex). The elimination constant (kel), half-life (t½) and intrinsic clearance (Clint) were determined in plot of […] versus time, using linear regression analysis:
Mouse hepatic microsomes were isolated from pooled, perfused livers of male CD1 mice. Rat hepatic microsomes were isolated from pooled, perfused livers of male Sprague Dawley rats. Dog hepatic microsomes were isolated from pooled, perfused livers of male Beagle dogs. The batches of microsomes were tested for quality control using Testosterone, Propranolol and Caffeine as reference compounds.
A 10 mM stock solution of compound in DMSO is diluted three-fold in DMSO. This pre-diluted compound solution is then further diluted to 2 μM in a 50 mM phosphate buffer (PBS, pH 7.4) and pre-warmed at 37° C. This compound dilution is mixed F2 with microsomal/cofactor mix at 37° C. under shaking at 300 rpm. Final reaction conditions are: 100 μL incubation volume, 1 μM of test compound (in duplicate), <0.1% DMSO, 0.5 mg/mL microsomes, 0.6 U/mL Glucose-6-phosphate-dehydrogenase (G6PDH, Roche, 10127671001), 3.3 mM MgCl2 (Sigma, M2670), 3.3 mM glucose-6-phosphate (Sigma, G-7879) and 1.3 mM NADP+ (Sigma, N-0505).
After 60 min of incubation at 300 rpm and 37° C., the reaction was stopped with 3 volumes of STOP solution (acetonitrile/MeOH 2/1 with diclofenac as internal standard). For the time point zero, 3 volumes of STOP solution were added to the compound dilution before the microsome mix was added. Six time points over 60 minutes have been analyzed. The samples of all time points were centrifuged, filtered and the supernatant analyzed by LCMS/MS (systems API4000).
The instrument responses (peak areas/IS peak area) were referenced to the zero time-point samples (considered as 100%) in order to determine the percentage of compound remaining.
Testosterone (1 μM) and Propranolol and Caffeine (1 μM) were used as reference compounds, being unstable and stable compounds respectively. If the microsomal stability values for these controls are not in the range determined by the historical data, the assay is not validated. The solubility of the compound in the final test concentration in 50 mM buffer pH 7.4 is checked by microscope to indicate whether precipitation is observed or not. If a precipitate is observed, no data of microsomal stability is generated.

human AT1R, sequence (P30556 whole entry): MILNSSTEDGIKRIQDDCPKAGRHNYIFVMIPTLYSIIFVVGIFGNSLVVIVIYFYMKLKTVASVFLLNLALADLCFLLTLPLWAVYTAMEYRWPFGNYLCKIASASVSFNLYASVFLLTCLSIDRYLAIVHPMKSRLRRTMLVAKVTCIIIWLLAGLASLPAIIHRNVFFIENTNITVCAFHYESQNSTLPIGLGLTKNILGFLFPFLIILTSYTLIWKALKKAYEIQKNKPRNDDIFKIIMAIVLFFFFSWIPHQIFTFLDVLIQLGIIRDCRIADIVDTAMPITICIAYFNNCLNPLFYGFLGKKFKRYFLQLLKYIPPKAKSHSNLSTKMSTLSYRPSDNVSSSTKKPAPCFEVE

SMILES	inhibition at 1 µM (human AT1R)	inhibition at 10 µM (human AT1R)	IC50 (human AT1R)	microsomal CLint [1]
CCCCOC(=O)NS(=O)(=O)c1ccc(C(F)(F)F)cc1N1CCN(Cc2nc3ccccc3n2C)CC1 [Compound A-09, butyl N-[2-[4-[(1-methylbenzimidazol-2-yl)methyl]piperazin-1-yl]-4-(trifluoromethyl)phenyl]sulfonylcarbamate]	< 30%	< 30%	36.5 µM	33 µL/min/mg
CCCCNC(=O)NS(=O)(=O)c1ccc(C(F)(F)F)cc1N1CCN(Cc2nc3ccccc3n2C)CC1 [Compound A-10, 1-butyl-3-[2-[4-[(1-methylbenzimidazol-2-yl)methyl]piperazin-1-yl]-4-(trifluoromethyl)phenyl]sulfonyl-urea]	< 30%	< 30%		69 µL/min/mg
CCCCNC(=O)NS(=O)(=O)c1ccc(C)cc1N1CCN(Cc2nc3ccccc3n2C)CC1 [Compound A-12, 1-butyl-3-[4-methyl-2-[4-[(1-methylbenzimidazol-2-yl)methyl]piperazin-1-yl]phenyl]sulfonyl-urea]	< 30%	< 30%		157 µL/min/mg
CC(C)Cc1ccc(-c2nn[nH]n2)c(N2CCN(Cc3nc4ccccc4n3C)CC2)c1 [Compound A-20, 2-[[4-[5-isobutyl-2-(2H-tetrazol-5-yl)-phenyl]piperazin-1-yl]methyl]-1-meth-yl-benzimidazole]	< 30%	< 30%	49.7 µM	20 µL/min/mg
CC(C)Oc1ccc(-c2nn[nH]n2)c(N2CCN(Cc3nc4ccccc4n3C)CC2)c1 [Compound A-24, 2-[[4-[5-isopropoxy-2-(2H-tetrazol-5-yl)phenyl]piperazin-1-yl]methyl]-1-methyl-benzimidazole]	< 30%	< 30%		9 µL/min/mg
CC(C)Cc1ccc(-c2nn[nH]n2)c(N2CCN(Cc3nc4ccccc4c(=O)[nH]3)CC2)c1 [Compound A-31, 2-[[4-[5-isobutyl-2-(2H-tetrazol-5-yl)phenyl]piperazin-1-yl]methyl]-3H-quinazolin-4-one]	< 30%	< 30%		16 µL/min/mg
CC(C)Oc1ccc(-c2nn[nH]n2)c(N2CCN(Cc3nc4ccccc4c(=O)[nH]3)CC2)c1 [Compound A-32]	< 30%	< 30%		6 µL/min/mg
CC(C)Oc1ccc(-c2nn[nH]n2)c(N2CCN(Cc3nc4ccccc4s3)CC2)c1 [Compound A-51, 2-[[4-[5-isoprop-oxy-2-(2H-tetrazol-5-yl)phenyl]piper-azin-1-yl]methyl]-1,3-benzothiazole]	< 30%	< 30%	55 µM	4 µL/min/mg
Cc1cc(CN2CCN(c3cc(CC(C)C)ccc3-c3nn[nH]n3)CC2)no1 [Compound A-82, 3-[[4-[5-isobutyl-2-(2H-tetrazol-5-yl)phenyl]piperazin-1-yl]methyl]-5-methyl-isoxazole]	< 30%	< 30%		7 µL/min/mg
CC(C)Cc1ccc(-c2nn[nH]n2)c(N2CCN(Cc3nccn3C)CC2)c1 [Compound A-83, 1-[5-isobutyl-2-(2H-tetrazol-5-yl)-phenyl]-4-[(1-meth-ylimidazol-2-yl)-methyl]piperazine]	< 30%	< 30%		11 µL/min/mg
CC(C)Cc1ccc(-c2nn[nH]n2)c(N2CCN(Cc3ccnn3C)CC2)c1 [Compound A-84, 1-[5-isobutyl-2-(2H-tetrazol-5-yl)phenyl]-4-[(1-methylpyrazol-5-yl)methyl]piperazine]	< 30%	< 30%		17 µL/min/mg
CC(C)Cc1ccc(-c2nn[nH]n2)c(N2CCN(Cc3ncccn3)CC2)c1 [Compound A-88]	< 30%	< 30%		7 µL/min/mg
CC(C)Cc1ccc(-c2nn[nH]n2)c(N2CCN(Cc3cccnn3)CC2)c1 [Compound A-90, 3-[[4-[5-isobutyl-2-(2H-tetrazol-5-yl)phenyl]piperazin-1-yl]methyl]pyridazine]	< 30%	< 30%		10 µL/min/mg
CC(C)Cc1cc(F)c(-c2nn[nH]n2)c(N2CCN(Cc3cccnn3)C(C)C2)c1 (centres unmarked) [Compound A-173, 3-[[4-[3-fluoro-5-isobutyl-2-(2H-tetrazol-5-yl)phenyl]-2-methyl-piperazin-1-yl]methyl]pyridazine]	< 30%	< 30%		5 µL/min/mg
CC(C)Cc1cc(F)c(-c2nn[nH]n2)c(N2CCN(Cc3cccnn3)[C@@H](C)C2)c1 [Compound A-174, 3-[[(2S)-4-[3-fluoro-5-isobutyl-2-(2H-tetrazol-5-yl)phenyl]-2-methyl-piperazin-1-yl]methyl]pyridazine]	< 30%	< 30%		15.3 µL/min/mg
CCC1CN(c2cc(CC(C)C)cc(F)c2-c2nn[nH]n2)CCN1Cc1cccnn1 (centres unmarked) [Compound A-178, 3-[[2-ethyl-4-[3-fluoro-5-isobutyl-2-(2H-tetrazol-5-yl)phenyl]piperazin-1-yl]methyl]pyridazine]	< 30%	< 30%		15 µL/min/mg
CCC1CN(Cc2cccnn2)CCN1c1cc(CC(C)C)cc(F)c1-c1nn[nH]n1 (centres unmarked) [Compound A-181, 3-[[3-ethyl-4-[3-fluoro-5-isobutyl-2-(2H-tetrazol-5-yl)phenyl]piperazin-1-yl]methyl]pyridazine]	< 30%	< 30%		6 µL/min/mg
CC(C)Cc1cc(F)c(-c2nn[nH]n2)c(N2CC(C)N(Cc3cccnn3)CC2C)c1 (centres unmarked) [Compound A-183, 3-[[4-[3-fluoro-5-isobutyl-2-(2H-tetrazol-5-yl)phen-yl]-2,5-dimethyl-piperazin-1-yl]-methyl]pyridazine]	< 30%	< 30%		12 µL/min/mg
CC(C)Cc1cc(F)c(-c2nn[nH]n2)c(N2CCN(Cc3ccccn3)[C@@H](C)C2)c1 [Compound A-217, (2S)-4-[3-fluoro-5-isobutyl-2-(2H-tetrazol-5-yl)phenyl]-2-methyl-1-(2-pyridylmethyl)piperazine]	< 30%	30 to 50%	17.5 µM	
Cc1cnc(CN2CCN(c3cc(CC(C)C)cc(F)c3-c3nn[nH]n3)C[C@@H]2C)s1 [Compound A-223, 2-[[(2S)-4-[3-fluoro-5-isobutyl-2-(2H-tetrazol-5-yl)phenyl]-2-methyl-piperazin-1-yl]methyl]-5-methyl-thiazole]	< 30%	< 30%		
